{"source": "paper PMC10117764", "about": "“The roles of serine hydrolases and serum albumin in alisol B 23-acetate hydrolysis in humans” (Frontiers in Pharmacology, 2023)", "key": {"[1]": {"parameters": "method as in Liu et al. (2022)", "settings": "oral administration of Qingfei Paidu Decoction, ref Liu et al. (2022); cited from earlier work"}, "FXR": {"target": "T1, FXR (Homo sapiens, UniProt Q96RI1)", "T1 construct": "expressed in transfected cells; host or cells: HEK293T", "T1 sequence (Q96RI1 1-486)": "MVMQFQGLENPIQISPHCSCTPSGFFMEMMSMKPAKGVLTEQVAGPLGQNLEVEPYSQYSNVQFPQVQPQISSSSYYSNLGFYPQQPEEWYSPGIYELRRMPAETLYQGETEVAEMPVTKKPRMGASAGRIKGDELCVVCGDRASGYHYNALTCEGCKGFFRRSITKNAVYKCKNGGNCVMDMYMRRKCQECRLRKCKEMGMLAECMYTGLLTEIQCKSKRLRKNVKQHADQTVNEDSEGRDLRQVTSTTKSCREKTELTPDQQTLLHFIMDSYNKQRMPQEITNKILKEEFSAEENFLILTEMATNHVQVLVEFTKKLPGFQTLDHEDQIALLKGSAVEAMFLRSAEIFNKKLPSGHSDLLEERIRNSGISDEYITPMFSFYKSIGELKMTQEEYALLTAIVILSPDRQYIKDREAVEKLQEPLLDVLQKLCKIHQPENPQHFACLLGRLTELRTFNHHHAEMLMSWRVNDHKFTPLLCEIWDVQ", "T1 sequence (P19793 1-462 partner)": "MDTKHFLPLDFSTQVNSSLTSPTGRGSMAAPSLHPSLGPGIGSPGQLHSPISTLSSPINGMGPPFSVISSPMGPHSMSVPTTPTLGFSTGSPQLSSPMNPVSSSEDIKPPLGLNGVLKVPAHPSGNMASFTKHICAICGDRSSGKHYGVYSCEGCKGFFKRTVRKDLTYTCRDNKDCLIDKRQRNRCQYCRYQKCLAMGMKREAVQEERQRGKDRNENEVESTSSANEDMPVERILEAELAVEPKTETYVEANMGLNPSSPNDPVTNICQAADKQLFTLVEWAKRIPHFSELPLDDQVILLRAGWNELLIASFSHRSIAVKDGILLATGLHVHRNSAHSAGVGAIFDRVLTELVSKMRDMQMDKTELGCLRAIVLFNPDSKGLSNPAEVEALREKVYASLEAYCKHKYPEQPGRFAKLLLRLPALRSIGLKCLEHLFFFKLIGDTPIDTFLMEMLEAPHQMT", "experiment": "FXR transcriptional activation, Dual-Luciferase Reporter Assay in HEK293T cells", "format": "cell-based", "method": "The phFXR, phRXR (retinoid X receptor) and FXR-dependent reporter (EcRE-LUC) were expressed and cotransfected with the Gal4 reporter vector MH100 × 4-TK-Luc, then 1 μg of the relevant plasmid was combined with 1 μg of reporter plasmids and 0.1 μg of pREP7 (Renilla Luciferase) reporter, which was used to normalize transfection efficiencies. HEK293T cells were dispensed into 96 well plates using a volume of 100 μL and 1 × 10^5 cells per well."}, "AB23A hydrolysis in HLMs": {"system": "AB23A hydrolysis in HLMs", "experiment": "Chemical inhibition assay of AB23A hydrolysis in HLMs", "format": "biochemical, human", "settings": "HLMs 0.1 mg/mL, AB23A 20 μM, 1 h; BNPP 50 μM, LPA 100 μM, GA 100 μM, boceprevir 20 μM, EDTA 20 μM", "method": "(§1) The inhibitory effects of a series of selective inhibitors of human hydrolases against AB23A hydrolysis were assessed. The selective inhibitors of human hydrolases including BNPP (50 μM, a specific inactivator of CES), boceprevir (20 μM, a potent inhibitor for CTSA), LPA (100 μM, a selective inhibitor for CES2A), GA (100 μM, a cholinesterase inhibitor), EDTA (20 μM, a selective PONs inhibitor). The incubation system included PBS, inhibitors, HLMs (0.1 mg/mL)/human plasma (25% dilution), and AB23A (20 μM). After reacting for 1 h, ice-cold acetonitrile was used to terminate the reaction. The supernatants by centrifuging were used to quantify the formation rates of AB by LC-UV analysis."}, "AB23A hydrolysis in HIMs": {"system": "AB23A hydrolysis in HIMs", "experiment": "Chemical inhibition assay of AB23A hydrolysis in HIMs", "format": "biochemical, human", "settings": "BNPP 50 μM, LPA 100 μM"}, "[2]": {"system": "AB23A hydrolysis in human plasma", "experiment": "Chemical inhibition assay of AB23A hydrolysis in human plasma", "format": "biochemical", "settings": "human plasma 25% dilution, AB23A 20 μM, 1 h; GA 100 μM, boceprevir 20 μM, EDTA 20 μM", "method": "as §1"}, "[3]": {"system": "T2, CC(=O)O[C@H](C[C@@H](C)C1=C2C[C@H](O)C3[C@@]4(C)CCC(=O)C(C)(C)C4CC[C@]3(C)[C@@]2(C)CC1)[C@H]1OC1(C)C", "T2 construct": "purchased Sigma-Aldrich Lot#SLCC9268", "experiment": "Kinetic analysis of AB23A hydrolysis in hSA", "format": "in vitro ADME, human", "settings": "other: hSA", "method": "(§2) The enzymatic kinetics of AB23A hydrolysis in different tissue preparations (HLMs, HIMs, human plasma) and human recombinant enzymes (hCES1A, hCES2A, hSA, hBchE) were analyzed. The incubation system (200 μL) consisted of PBS, each tested enzyme, and AB23A (ranging from 0 to 1,000 μM). After incubating for 1 h, the supernatants were then used for LC-UV analysis. The kinetic parameters of AB23A hydrolysis were fitted by the following Michaelis−Menten Eq. 1 ([Zhang et al., 2022]). V=(Vmax×[S])⁄(Km+[S]) (1) Here, K m is the Michaelis constant of AB23A hydrolysis, V max is the maximum velocity of AB23A hydrolysis, V max /K m is used to calculate the intrinsic clearance (CL int )."}, "[4]": {"substrate": "CC(=O)O[C@H](C[C@@H](C)C1=C2C[C@H](O)C3[C@@]4(C)CCC(=O)C(C)(C)C4CC[C@]3(C)[C@@]2(C)CC1)[C@H]1OC1(C)C", "experiment": "Kinetic analysis of AB23A hydrolysis in hCES1A", "format": "in vitro ADME, human", "settings": "other: hCES1A", "method": "as §2"}, "[5]": {"substrate": "CC(=O)O[C@H](C[C@@H](C)C1=C2C[C@H](O)C3[C@@]4(C)CCC(=O)C(C)(C)C4CC[C@]3(C)[C@@]2(C)CC1)[C@H]1OC1(C)C", "experiment": "Kinetic analysis of AB23A hydrolysis in hCES2A", "format": "in vitro ADME, human", "settings": "other: hCES2A", "method": "as §2"}}, "data": [{"molecule": "C[C@H](C[C@H](O)[C@H]1OC1(C)C)C1=C2C[C@H](O)[C@H]3[C@@]4(C)CCC(=O)C(C)(C)[C@@H]4CC[C@]3(C)[C@@]2(C)CC1", "note": "[AB, alisol B]", "values": [{"measurement": "Detection in mice plasma and liver", "setting": "[1]", "result": "readily detected"}, {"measurement": "FXR agonist effect (transcriptional activation)", "setting": "FXR; HEK293T cells, 5, 10, 20 μM, 48 h, GW4064 (10 μM) set at 100%", "result": "dose-dependently agonize FXR"}, {"measurement": "FXR activation compared with AB23A", "setting": "FXR; HEK293T cells, low doses (5 and 10 μM)", "result": "slightly more potent than AB23A"}]}, {"molecule": "O=[N+]([O-])c1ccc(OP(=O)(O)Oc2ccc([N+](=O)[O-])cc2)cc1", "note": "[BNPP, bis(p-nitrophenyl) phosphate]", "values": [{"measurement": "Effect on AB23A hydrolysis in HLMs", "setting": "AB23A hydrolysis in HLMs", "result": "completely blocked"}, {"measurement": "Effect on formation of AB (AB23A hydrolysis) in HIMs", "setting": "AB23A hydrolysis in HIMs", "result": "near-completely inhibited"}]}, {"molecule": "O=C(O)CN(CCN(CC(=O)O)CC(=O)O)CC(=O)O", "note": "[EDTA, Ethylenediaminetetraacetic acid]", "values": [{"measurement": "Effect on formation of AB (AB23A hydrolysis) in human plasma", "setting": "[2]", "result": "negligible effects"}, {"measurement": "Effect on AB23A hydrolysis in HLMs", "setting": "AB23A hydrolysis in HLMs", "result": "negligible effects"}]}, {"molecule": "COc1ccc2c3c1O[C@H]1C[C@@H](O)C=C[C@@]31CCN(C)C2", "note": "[GA, galanthamine]", "values": [{"measurement": "Effect on formation of AB (AB23A hydrolysis) in human plasma", "setting": "[2]", "result": "significantly inhibit"}, {"measurement": "Effect on AB23A hydrolysis in HLMs", "setting": "AB23A hydrolysis in HLMs", "result": "slightly blocked"}]}, {"molecule": "CN(C)C(=O)C(CCN1CCC(O)(c2ccc(Cl)cc2)CC1)(c1ccccc1)c1ccccc1", "note": "[LPA, Loperamide]", "values": [{"measurement": "Effect on AB23A hydrolysis in HLMs", "setting": "AB23A hydrolysis in HLMs", "result": "slightly blocked"}, {"measurement": "Effect on formation of AB (AB23A hydrolysis) in HIMs", "setting": "AB23A hydrolysis in HIMs", "result": "partially inhibit"}]}, {"molecule": "CC(C)(C)NC(=O)N[C@H](C(=O)N1C[C@H]2[C@@H]([C@H]1C(=O)NC(CC1CCC1)C(=O)C(N)=O)C2(C)C)C(C)(C)C", "note": "(stereo partly shown) [boceprevir, Boceprevir]", "values": [{"measurement": "Effect on formation of AB (AB23A hydrolysis) in human plasma", "setting": "[2]", "result": "negligible effects"}, {"measurement": "Effect on AB23A hydrolysis in HLMs", "setting": "AB23A hydrolysis in HLMs", "result": "negligible effects"}]}, {"molecule": "hSA (Homo sapiens)", "values": [{"measurement": "Vmax", "setting": "[3]", "result": 0.0004, "unit": "µmol/min/mg"}, {"measurement": "Vmax/Km", "setting": "[3]", "result": 1.53, "unit": "µL/min/mg"}]}, {"molecule": "hCES1A (Homo sapiens) (protein, 10xHis; made in house; host or cells: HEK293-F cells, pTT5 vector, purified from conditioned medium) GHPSSPPVVDTVHGKVLGKFVSLEGFAQPVAIFLGIPFAKPPLGPLRFTPPQPAEPWSFVKNATSYPPMCTQDPKAGQLLSELFTNRKENIPLKLSEDCLYLNIYTPADLTKKNRLPVMVWIHGGGLMVGAASTYDGLALAAHENVVVVTIQYRLGIWGFFSTGDEHSRGNWGHLDQVAALRWVQDNIASFGGNPGSVTIFGESAGGESVSVLVLSPLAKNLFHRAISESGVALTSVLVKKGDVKPLAEQIAITAGCKTTTSAVMVHCLRQKTEEELLETTLKMKFLSLDLQGDPRESQPLLGTVIDGMLLLKTPEELQAERNFHTVPYMVGINKQEFGWLIPMQLMSYPLSEGQLDQKTAMSLLWKSYPLVCIAKELIPEATEKYLGGTDDTVKKKDLFLDLIADVMFGVPSVIVARNHRDAGAPTYMYEFQYRPSFSSDMKPKTVIGDHGDELFSVFGAPFLKEGASEEEIRLSKMVMKFWANFARNGNPNGEGLPHWPEYNQKEGYLQIGANTQAAQKLKDKEVAFWTNLFAKKAVEKPPQTE", "values": [{"measurement": "Vmax", "setting": "[4]", "result": 0.0235, "unit": "µmol/min/mg"}, {"measurement": "Vmax/Km", "setting": "[4]", "result": 123, "unit": "µL/min/mg"}]}, {"molecule": "hCES2A (Homo sapiens) (protein, 10xHis; made in house; host or cells: HEK293-F cells, pTT5 vector, purified from conditioned medium) QDSASPIRTTHTGQVLGSLVHVKGANAGVQTFLGIPFAKPPLGPLRFAPPEPPESWSGVRDGTTHPAMCLQDLTAVESEFLSQFNMTFPSDSMSEDCLYLSIYTPAHSHEGSNLPVMVWIHGGALVFGMASLYDGSMLAALENVVVVIIQYRLGVLGFFSTGDKHATGNWGYLDQVAALRWVQQNIAHFGGNPDRVTIFGESAGGTSVSSLVVSPISQGLFHGAIMESGVALLPGLIASSADVISTVVANLSACDQVDSEALVGCLRGKSKEEILAINKPFKMIPGVVDGVFLPRHPQELLASADFQPVPSIVGVNNNEFGWLIPKVMRIYDTQKEMDREASQAALQKMLTLLMLPPTFGDLLREEYIGDNGDPQTLQAQFQEMMADSMFVIPALQVAHFQCSRAPVYFYEFQHQPSWLKNIRPPHMKADHGDELPFVFRSFFGGNYIKFTEEEEQLSRKMMKYWANFARNGNPNGEGLPHWPLFDQEEQYLQLNLQPAVGRALKAHRLQFWKKALPQKIQELEEPEERHTEL", "values": [{"measurement": "Vmax", "setting": "[5]", "result": 0.0125, "unit": "µmol/min/mg"}, {"measurement": "Vmax/Km", "setting": "[5]", "result": 212, "unit": "µL/min/mg"}]}]}
